Measured values published in PMC5848165 (Toxins, 2018).
Where two headings read alike, the source gives them in different places. Residues, ends and D or L forms follow the SMILES beside them.

Tests used:
[1] = test system: TTX-R sodium channels from rat DRG neurons; settings: ref [18]; cited from earlier work
Description: In this study, the analgesic effect and mechanism of JZTX-34 on pain were investigated.

[2] = test system: chimera #1, Nav1.5 (Nav1.7-DII-S3-S4); assay: Whole-cell patch clamp, chimera #1 in HEK293 cells; format: cell-based, rat Nav1.5 / human Nav1.7; settings: −10 mV from −80 mV
Description: Many animal toxins alter activation or inactivation of sodium channels by binding to the S3–S4 regions of channels, which are probably the external linkers or voltage sensors of sodium channels. α-Scorpion toxins slow down fast-inactivation of sodium channels by binding to the extracellular linker loop of DIVS3-S4 (neurotoxin site 3). Meanwhile, β-scorpion toxins that interact with DIIS3-S4 linker enhance the activation of sodium channels by trapping DII voltage sensor in an activated state. As Nav1.5 channel is resistant to the inhibition of JZTX-34, we investigated the binding site of JZTX-34 to Nav1.7 by constructing chimeric channels between Nav1.5 and Nav1.7. […]
The HEK293T cells were maintained in standard culture conditions (5% CO2 and 37 °C). […] After culturing for 36–72 h, cells with obvious green fluorescence were selected for sodium currents recordings the internal solution for sodium currents recording that contained (in mM) 140 CsF, 5 NaCl, 10 HEPES, 3 Na2-ATP, and 10 EGTA. […]
Sodium currents were recorded from DRG, HEK293, and ND cells by the whole-cell patch-clamp technique at 25 °C. […] Experiments date were acquired from whole-cell Axon 700B patch clamp amplifier (Molecular Devices, Sunnyvale, CA, USA) and analyzed by the program Clampfit10.0 (Molecular Devices, Sunnyvale, CA, USA) and Sigmaplot. […]

[3] = test system: acetic acid-induced writhing response in mice; format: in vivo, mouse (Kunming); settings: counted 30 min after 0.8% acetic acid i.p., control 61, n = 6

Which “effect on TTX-R sodium currents (previous work)” value [1] does the source give for `CC(C)C[C@@H]1NC(=O)[C@H](Cc2c[nH]c3ccccc23)NC(=O)[C@H](CCC(=O)O)NC(=O)[C@H](CCCNC(=N)N)NC(=O)[C@@H](NC(=O)[C@H](C)N)CSSC[C@@H]2NC(=O)[C@@H]3CSSC[C@@H](C(=O)N[C@H](C(=O)N[C@@H](Cc4c[nH]c5ccccc45)C(=O)N[C@@H](CC(=O)O)C(=O)N[C@@H](Cc4c[nH]c5ccccc45)C(=O)N[C@H](C(=O)N[C@H](C(=O)O)C(C)C)[C@@H](C)O)C(C)C)NC(=O)[C@H](Cc4c[nH]cn4)NC(=O)[C@H](Cc4ccc(O)cc4)NC(=O)[C@@H]4CCCN4C(=O)[C@H](Cc4c[nH]c5ccccc45)NC(=O)[C@H](CCCCN)NC(=O)[C@H](CCCCN)NC(=O)[C@H](CCCNC(=N)N)NC(=O)[C@H](CSSC[C@H](NC(=O)CNC(=O)CNC1=O)C(=O)N[C@@H](CO)C(=O)N[C@@H](CCCCN)C(=O)N[C@@H](CC(=O)O)C(=O)N[C@@H](C)C(=O)N[C@@H](CC(=O)O)C(=O)N3)NC(=O)[C@H](CCC(=O)O)NC(=O)[C@H](CC(C)C)NC(=O)[C@H](Cc1c[nH]cn1)NC(=O)[C@H](C)NC2=O` [JZTX-34, Jingzhaotoxin-34] (HELM PEPTIDE1{A.C.R.E.W.L.G.G.C.S.K.D.A.D.C.C.A.H.L.E.C.R.K.K.W.P.Y.H.C.V.W.D.W.T.V}$PEPTIDE1,PEPTIDE1,2:R3-16:R3|PEPTIDE1,PEPTIDE1,9:R3-21:R3|PEPTIDE1,PEPTIDE1,15:R3-29:R3$$$V2.0; N-terminus and C-terminus assumed) here?
Its value is “no inhibition on tetrodotoxin-resistant (TTX-R) sodium currents”.

And the “inhibition of chimera #1 currents” value ([2]; 1 µM)?
Its value is 47.6 ± 3.6%.

And the “inhibition of chimera #1 currents” value ([2]; 10 µM)?
Its value is 79.5 ± 2.8%.

And the number of writhing ([3]; 0.5 mg/kg i.p.)?
The number of writhing was 38.

And the number of writhing ([3]; 1 mg/kg i.p.)?
Its number of writhing is 26.

What about the number of writhing ([3]; 2 mg/kg i.p.) of the same compound?
The number of writhing was 11.
